Results published in ChEMBL document CHEMBL3872283, “Design, Synthesis, and Evaluation of Novel and Selective G-protein Coupled Receptor 120 (GPR120) Spirocyclic Agonists” (ACS Med Chem Lett, 2017).
Calls of active or inactive are those of the source. The rule behind the calls is not given here.

Columns and labels:
[1] = MRT in dog at 1 mg/kg, iv or 2 mg/kg, po by LC/MS/MS analysis; type: ADME, organism-based, Canis lupus familiaris; details: in vivo
Mus musculus [2] = assay: Antidiabetic activity in diet-induced obese mouse assessed as insulin sensitivity by measuring reduction in glucose at 30 mg/kg, po qd administered daily via gavage for 14 days measured on day 14 post dose; type: functional, organism-based
[3] = Oral bioavailability in dog at 2 mg/kg by LC/MS/MS analysis; type: ADME, organism-based, Canis lupus familiaris; details: in vivo
[4] = Protein binding in rat plasma at 1 mg/kg, iv or 2 mg/kg, po by LC/MS/MS analysis; type: ADME, organism-based; details: read-out: PPB (converted)
[5] = Half life in rhesus monkey at 0.5 mg/kg, iv or 1 mg/kg, po by LC/MS/MS analysis; type: ADME, organism-based, Macaca mulatta; details: in vivo
Mus musculus [6] = assay: Decrease in insulin levels in diet-induced obese mouse at 30 mg/kg, po qd administered daily via gavage for 14 days measured on day 14 post dose; type: functional, organism-based
[7] = molecular target: Sodium channel protein type 5 subunit alpha (Homo sapiens, UniProt Q14524); assay: Inhibition of Nav1.5 (unknown origin)
Chain of Sodium channel protein type 5 subunit alpha (Q14524 whole entry): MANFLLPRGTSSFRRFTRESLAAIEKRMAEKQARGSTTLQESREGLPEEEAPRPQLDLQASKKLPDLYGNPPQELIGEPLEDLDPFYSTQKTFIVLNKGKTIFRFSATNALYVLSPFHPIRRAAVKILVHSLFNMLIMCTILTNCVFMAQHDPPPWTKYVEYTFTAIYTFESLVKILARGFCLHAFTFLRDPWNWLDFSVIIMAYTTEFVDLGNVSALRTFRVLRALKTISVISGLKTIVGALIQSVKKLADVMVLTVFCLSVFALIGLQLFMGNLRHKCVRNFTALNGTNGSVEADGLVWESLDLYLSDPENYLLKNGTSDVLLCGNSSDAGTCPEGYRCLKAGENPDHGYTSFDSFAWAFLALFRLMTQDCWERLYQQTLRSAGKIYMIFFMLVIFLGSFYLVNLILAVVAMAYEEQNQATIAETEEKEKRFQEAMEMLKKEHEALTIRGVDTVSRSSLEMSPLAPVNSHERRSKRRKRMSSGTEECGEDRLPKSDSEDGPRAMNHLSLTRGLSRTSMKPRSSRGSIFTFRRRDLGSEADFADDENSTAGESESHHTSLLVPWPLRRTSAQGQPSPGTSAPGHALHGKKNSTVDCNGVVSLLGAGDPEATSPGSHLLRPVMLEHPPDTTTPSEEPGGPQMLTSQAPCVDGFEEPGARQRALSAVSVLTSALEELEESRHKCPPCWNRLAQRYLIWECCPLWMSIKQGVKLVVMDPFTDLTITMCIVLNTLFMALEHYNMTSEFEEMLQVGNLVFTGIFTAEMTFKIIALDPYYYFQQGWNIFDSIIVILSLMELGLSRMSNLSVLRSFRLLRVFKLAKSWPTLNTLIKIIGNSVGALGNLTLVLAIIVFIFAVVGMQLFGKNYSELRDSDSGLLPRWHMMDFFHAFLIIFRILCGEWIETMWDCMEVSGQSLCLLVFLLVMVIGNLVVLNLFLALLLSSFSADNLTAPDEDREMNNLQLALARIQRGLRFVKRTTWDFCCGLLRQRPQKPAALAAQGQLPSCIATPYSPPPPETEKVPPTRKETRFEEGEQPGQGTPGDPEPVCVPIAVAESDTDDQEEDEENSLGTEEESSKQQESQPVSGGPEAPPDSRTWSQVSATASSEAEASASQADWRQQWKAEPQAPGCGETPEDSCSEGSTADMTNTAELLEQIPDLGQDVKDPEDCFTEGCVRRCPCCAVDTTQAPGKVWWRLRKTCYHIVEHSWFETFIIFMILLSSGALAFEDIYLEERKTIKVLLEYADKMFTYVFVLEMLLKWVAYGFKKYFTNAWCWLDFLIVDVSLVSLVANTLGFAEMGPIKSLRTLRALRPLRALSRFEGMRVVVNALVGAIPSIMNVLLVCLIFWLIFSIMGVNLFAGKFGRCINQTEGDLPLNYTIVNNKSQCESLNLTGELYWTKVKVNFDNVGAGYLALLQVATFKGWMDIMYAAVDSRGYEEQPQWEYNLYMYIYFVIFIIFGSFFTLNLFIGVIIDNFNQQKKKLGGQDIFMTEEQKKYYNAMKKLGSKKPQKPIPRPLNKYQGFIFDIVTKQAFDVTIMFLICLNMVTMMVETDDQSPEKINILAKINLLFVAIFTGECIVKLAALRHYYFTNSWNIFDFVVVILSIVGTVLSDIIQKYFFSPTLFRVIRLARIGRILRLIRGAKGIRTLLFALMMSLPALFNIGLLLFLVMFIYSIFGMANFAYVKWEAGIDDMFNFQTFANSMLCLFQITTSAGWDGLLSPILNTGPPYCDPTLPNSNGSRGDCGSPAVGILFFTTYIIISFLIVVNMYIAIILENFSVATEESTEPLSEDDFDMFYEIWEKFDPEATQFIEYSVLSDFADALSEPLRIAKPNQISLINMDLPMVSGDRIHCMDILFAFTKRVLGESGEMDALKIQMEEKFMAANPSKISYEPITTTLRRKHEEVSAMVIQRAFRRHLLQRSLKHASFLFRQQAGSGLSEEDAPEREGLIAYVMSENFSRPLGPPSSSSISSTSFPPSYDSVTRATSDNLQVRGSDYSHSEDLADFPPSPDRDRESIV

Mus musculus [8] = assay: Antidiabetic activity in diet-induced obese mouse assessed as reduction in homeostatic model assessment of insulin resistance at 30 mg/kg, po qd administered daily via gavage for 28 days measured on day 28 post dose; type: functional, organism-based
Mus musculus [9] = assay: Decrease in insulin levels in diet-induced obese mouse at 30 mg/kg, po qd administered daily via gavage for 28 days measured on day 28 post dose; type: functional, organism-based
[10] = Protein binding in rhesus monkey plasma at 0.5 mg/kg, iv or 1 mg/kg, po by LC/MS/MS analysis; type: ADME, organism-based, Macaca mulatta; details: read-out: PPB (converted)
Cytochrome P450 2D6 = Cytochrome P450 2D6 (Homo sapiens, UniProt P10635); assay: Inhibition of human CYP2D6; type: ADME
Chain of Cytochrome P450 2D6 (P10635 whole entry): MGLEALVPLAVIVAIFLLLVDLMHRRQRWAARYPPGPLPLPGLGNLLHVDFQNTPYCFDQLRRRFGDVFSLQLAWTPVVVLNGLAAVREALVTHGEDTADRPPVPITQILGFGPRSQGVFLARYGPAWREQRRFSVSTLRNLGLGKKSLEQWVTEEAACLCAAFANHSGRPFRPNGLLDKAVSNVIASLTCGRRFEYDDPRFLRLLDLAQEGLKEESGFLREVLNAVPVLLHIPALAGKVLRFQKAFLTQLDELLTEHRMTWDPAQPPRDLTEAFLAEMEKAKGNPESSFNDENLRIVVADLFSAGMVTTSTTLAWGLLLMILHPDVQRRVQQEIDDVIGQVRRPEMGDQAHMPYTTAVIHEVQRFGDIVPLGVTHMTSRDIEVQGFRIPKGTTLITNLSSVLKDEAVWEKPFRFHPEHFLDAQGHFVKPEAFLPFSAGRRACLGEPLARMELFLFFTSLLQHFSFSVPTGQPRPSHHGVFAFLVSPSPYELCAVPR

[11] = Plasma clearance in rat at 1 mg/kg, iv or 2 mg/kg, po by LC/MS/MS analysis; type: ADME, organism-based
[12] = molecular target: Free fatty acid receptor 1 (Homo sapiens, UniProt O14842); assay: Agonist activity at human GPR40 expressed in HEK293 cells assessed as induction of IP1 accumulation after 60 mins by HTRF assay; type: functional, cell-based
Chain of Free fatty acid receptor 1 (O14842 whole entry): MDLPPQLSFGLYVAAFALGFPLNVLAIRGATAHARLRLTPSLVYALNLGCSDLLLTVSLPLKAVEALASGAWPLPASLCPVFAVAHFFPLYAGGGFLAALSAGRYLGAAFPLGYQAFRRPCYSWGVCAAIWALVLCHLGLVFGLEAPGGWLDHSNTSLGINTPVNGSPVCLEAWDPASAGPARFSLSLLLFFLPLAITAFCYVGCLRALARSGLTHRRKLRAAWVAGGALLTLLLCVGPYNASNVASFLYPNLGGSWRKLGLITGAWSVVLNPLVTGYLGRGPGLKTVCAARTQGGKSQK

[13] = Volume of distribution at steady state in dog at 1 mg/kg, iv or 2 mg/kg, po by LC/MS/MS analysis; type: ADME, organism-based, Canis lupus familiaris; details: in vivo, read-out: Vdss
[14] = Half life in rat at 1 mg/kg, iv or 2 mg/kg, po by LC/MS/MS analysis; type: ADME, organism-based; details: in vivo
Cytochrome P450 3A4 = Cytochrome P450 3A4 (Homo sapiens, UniProt P08684); assay: Inhibition of human CYP3A4; type: ADME
Chain of Cytochrome P450 3A4 (P08684 whole entry): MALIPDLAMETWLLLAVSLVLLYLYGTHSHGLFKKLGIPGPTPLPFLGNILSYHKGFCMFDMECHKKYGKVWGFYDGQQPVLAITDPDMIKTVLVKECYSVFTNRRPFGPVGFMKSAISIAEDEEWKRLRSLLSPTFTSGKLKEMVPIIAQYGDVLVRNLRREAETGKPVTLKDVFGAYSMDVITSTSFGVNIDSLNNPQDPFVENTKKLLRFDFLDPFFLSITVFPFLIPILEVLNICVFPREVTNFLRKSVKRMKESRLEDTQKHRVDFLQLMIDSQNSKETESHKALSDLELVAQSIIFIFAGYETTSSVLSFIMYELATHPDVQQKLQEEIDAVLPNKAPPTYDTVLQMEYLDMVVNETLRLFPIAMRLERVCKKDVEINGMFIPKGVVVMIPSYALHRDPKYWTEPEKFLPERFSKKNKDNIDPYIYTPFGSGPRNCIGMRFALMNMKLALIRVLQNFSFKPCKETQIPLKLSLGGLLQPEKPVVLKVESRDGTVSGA

[15] = AUC in rhesus monkey at 0.5 mg/kg, iv by LC/MS/MS analysis; type: ADME, organism-based, Macaca mulatta; details: in vivo
[16] = Plasma clearance in rhesus monkey at 0.5 mg/kg, iv or 1 mg/kg, po by LC/MS/MS analysis; type: ADME, organism-based, Macaca mulatta
[17] = molecular target: T1, Peroxisome proliferator-activated receptor delta (Homo sapiens) (UniProt Q03181); assay: Binding affinity to human PPARdelta
T1 sequence (whole entry): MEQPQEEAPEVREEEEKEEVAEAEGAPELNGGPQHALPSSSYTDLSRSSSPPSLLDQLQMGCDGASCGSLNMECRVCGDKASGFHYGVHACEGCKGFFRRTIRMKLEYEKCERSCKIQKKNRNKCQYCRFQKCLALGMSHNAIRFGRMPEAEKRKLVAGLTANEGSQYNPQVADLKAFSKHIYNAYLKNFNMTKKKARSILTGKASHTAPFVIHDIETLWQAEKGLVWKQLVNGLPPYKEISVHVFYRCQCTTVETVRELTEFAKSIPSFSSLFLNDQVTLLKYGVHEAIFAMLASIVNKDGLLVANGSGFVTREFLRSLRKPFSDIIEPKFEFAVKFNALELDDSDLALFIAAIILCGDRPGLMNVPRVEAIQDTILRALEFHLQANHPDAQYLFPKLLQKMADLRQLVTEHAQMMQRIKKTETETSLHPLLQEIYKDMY

[18] = Half life in mouse at 2 mg/kg, iv or 10 mg/kg, po by LC/MS/MS analysis; type: ADME, organism-based; details: in vivo
[19] = Volume of distribution at steady state in rat at 1 mg/kg, iv or 2 mg/kg, po by LC/MS/MS analysis; type: ADME, organism-based; details: in vivo, read-out: Vdss
[20] = Antidiabetic activity in C57BL/6 mouse at 30 mg/kg, po administered 60 mins via gavage prior to dextrose challenge measured up to 120 mins post dextrose challenge by oGTT; type: functional, organism-based
[21] = Volume of distribution at steady state in rhesus monkey at 0.5 mg/kg, iv or 1 mg/kg, po by LC/MS/MS analysis; type: ADME, organism-based, Macaca mulatta; details: in vivo, read-out: Vdss

MRT [1]: 10.5 h | bioavailability [3]: 100% | fraction unbound [4]: 0.0013 | half-life [5]: 9.1 h | fraction unbound [10]: 0.0028 | INH (Cytochrome P450 2D6): > 48 µM | clearance [11]: 2.3 mL/min/kg | EC50 [12]: > 10 µM | Vd [13]: 6.7 L/kg | half-life [14]: 1.4 h | INH (Cytochrome P450 3A4): > 48 µM | AUC [15]: 8.7 µM·h | clearance [16]: 2.7 mL/min/kg | Activity [17]: > 10 µM | half-life [18]: 18.1 h | Vd [19]: 0.4 L/kg | Vd [21]: 1.7 L/kg
SMILES: O=C(O)CC1CCC2(CC1)CCN(c1cc(OC(F)(F)F)ccc1Cl)CC2
Activity (Mus musculus [2]): Active | Activity (Mus musculus [6]): Active | INH [7]: 13 µM | Activity (Mus musculus [8]): Active | Activity (Mus musculus [9]): Active | Activity [20]: Active
